US20030060487A1, “Treatment of neurodegenerative disease” (priority 2000, published 2003)

Legend:
[1] = target: T1, β-amyloid peptide (his-Aβ 1-40) with Aβ 1-42 fibrils (Homo sapiens, UniProt P05067); experiment: Colloid drug screen for aggregate inhibition at high peptide concentration, with pre-formed Aβ 1-42 fibrils; type: biochemical; conditions: 20 uM his-Aβ 1-40 + 1 uM Aβ 1-42 fibrils; 5 ul drug (2.9 mg/ml in DMSO) in 100 ul; 37° C. 4-6 hours; microscope 40×
T1 construct: 10 ul of a 200 uM solution of his-Aβ 1-40 peptide in phosphate buffer; 3.3 ul of 30 uM Aβ 1-42 fibrils (non-histidine-tagged) was added to each well
Excerpt: (§1) Compositions were identified that inhibit aggregation characteristic of neurodegenerative disease at high B-amyloid peptide concentration, low peptide concentration, and in some cases both. Compositions that inhibited aggregation at high concentration inhibited formation where an assay included B-amyloid peptide and at least some amount of pre-formed aggregate characteristic of neurodegenerative disease. Compositions that inhibited aggregation at low concentration inhibited […] in the presence of β-amyloid peptide but in the absence of any pre-formed aggregate characteristic of neurodegenerative disease.
In another drug screening method, drugs were incubated with Aβ 1-42 fibrils, which will convert normal Aβ 1-40 peptides to the fibrillar form at a faster rate than Aβ 1-40 fibrils. Histidine-tagged Aβ 1-40 peptides were then added to the wells, along with colloids derivatized with self-assembled monolayers containing NTA-Ni for the attachment of histidine-tagged Aβ 1-40. It was previously shown that Aβ 1-42 fibrils will cause accelerated conversion of Aβ 1-40, which will then incorporate into large aggregates structures. These aggregates are colored red by the colloids attached to the peptides, and are easily visible under the microscope.
5 ul of each drug in DMSO was added to the wells of a 96-well ELISA plate, which contained 52 ul of phosphate buffer. […]

[2] = target: T2, β-amyloid peptide (his-Aβ 1-40) (Homo sapiens, UniProt P05067); experiment: Colloid colorimetric drug screen for fibril inhibition at low peptide concentration, no pre-formed aggregate; type: biochemical; conditions: 5 uM his-Aβ 1-40, no pre-formed aggregate; 5 ul drug (2.9 mg/ml in DMSO); 37C 1.5-2 hours; well stays pink vs blue
T2 construct: 10 ul of a 50 uM solution of his-Aβ 1-40 peptide in phosphate buffer
Excerpt: as §1
In one drug screening method, histidine-tagged AB 1-40 peptides were immobilized on colloids derivatized with self-assembled monolayers containing NTA-Ni for the attachment of histidine-tagged peptides. It has been previously shown that the Aβ peptides, if not inhibited by a drug, will spontaneously convert to the fibrillar form and aggregate, pulling the colloids close together, and causing a color change from pink to blue.
Drugs from the Sigma-RBI Library of Pharmacologically Active Compounds (LOPAC; #SC001, 1999) were dissolved in dimethyl sulphoxide (DMSO) to a final concentration of 2.9 mg/ml. […]

[3] = system: Amyloid Precursor Protein (APP) in HEK cells; experiment: Colorimetric whole cell screening assay for drugs that effect APP production, secretion, or cleavage; type: cell-based, Human; conditions: HEK cells expressing APP; 1.25 ul of 2.9 mg/mL drug in DMSO per well, approx. 18 hours; then 5 uM His-AB colloids 8-12 hours
Method: Human Embryonic Kidney (HEK) cells expressing the Amyloid Precursor Protein (APP) were split into the wells of a 96-well cell-culture plate and were allowed to adhere and spread. […] Positive control cells were given DMSO in place of a drug. […] Cells were allowed to grow overnight for approximately 18 hours at 37C. After 18 hours, 1.925 mL of a 30 uM solution of His-tagged AB(1-40) in phosphate buffer was mixed with 2.880 mL 40 uM NTA colloids for a resulting concentration of 12 uM His-AB. 50 ul of the AB colloid solution was added to each well of the cell-culture plate, which contained 70 ul cell culture media per well. […] The plates were incubated at 37C for 8-12 hours, or until a color change from pink to blue occurred in the positive controls.
Once the positive controls changed color from pink to blue, the wells containing drug candidates were visually examined for a color change. […] Cell death due to drug toxicity would obviously effect APP production, and may cause a well to remain pink. For this reason, all wells containing drug candidates were examined under the microscope for cell viability.

T1 sequence (P05067 672-713): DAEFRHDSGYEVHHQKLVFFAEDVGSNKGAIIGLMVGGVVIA
T1 sequence (P05067 672-711): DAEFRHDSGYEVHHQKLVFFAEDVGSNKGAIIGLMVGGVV
T2 sequence (P05067 672-711): as above

inhibition of aggregate formation at high peptide concentration [1]: do not provide a positive result
inhibition of aggregate formation at low peptide concentration [2]: do not provide a positive result
Compound: COc1cc(Cc2cnc(N)nc2N)cc(OC)c1OC [trimethoprim]
effect on APP production, secretion, or cleavage (lack of color change pink to blue) [3]: do not provide a positive result
